Target: Mineralocorticoid receptor (Homo sapiens, UniProt P08235)
Test: Antagonist activity at mineralocorticoid receptor (unknown origin)

Chain of Mineralocorticoid receptor (P08235 whole entry): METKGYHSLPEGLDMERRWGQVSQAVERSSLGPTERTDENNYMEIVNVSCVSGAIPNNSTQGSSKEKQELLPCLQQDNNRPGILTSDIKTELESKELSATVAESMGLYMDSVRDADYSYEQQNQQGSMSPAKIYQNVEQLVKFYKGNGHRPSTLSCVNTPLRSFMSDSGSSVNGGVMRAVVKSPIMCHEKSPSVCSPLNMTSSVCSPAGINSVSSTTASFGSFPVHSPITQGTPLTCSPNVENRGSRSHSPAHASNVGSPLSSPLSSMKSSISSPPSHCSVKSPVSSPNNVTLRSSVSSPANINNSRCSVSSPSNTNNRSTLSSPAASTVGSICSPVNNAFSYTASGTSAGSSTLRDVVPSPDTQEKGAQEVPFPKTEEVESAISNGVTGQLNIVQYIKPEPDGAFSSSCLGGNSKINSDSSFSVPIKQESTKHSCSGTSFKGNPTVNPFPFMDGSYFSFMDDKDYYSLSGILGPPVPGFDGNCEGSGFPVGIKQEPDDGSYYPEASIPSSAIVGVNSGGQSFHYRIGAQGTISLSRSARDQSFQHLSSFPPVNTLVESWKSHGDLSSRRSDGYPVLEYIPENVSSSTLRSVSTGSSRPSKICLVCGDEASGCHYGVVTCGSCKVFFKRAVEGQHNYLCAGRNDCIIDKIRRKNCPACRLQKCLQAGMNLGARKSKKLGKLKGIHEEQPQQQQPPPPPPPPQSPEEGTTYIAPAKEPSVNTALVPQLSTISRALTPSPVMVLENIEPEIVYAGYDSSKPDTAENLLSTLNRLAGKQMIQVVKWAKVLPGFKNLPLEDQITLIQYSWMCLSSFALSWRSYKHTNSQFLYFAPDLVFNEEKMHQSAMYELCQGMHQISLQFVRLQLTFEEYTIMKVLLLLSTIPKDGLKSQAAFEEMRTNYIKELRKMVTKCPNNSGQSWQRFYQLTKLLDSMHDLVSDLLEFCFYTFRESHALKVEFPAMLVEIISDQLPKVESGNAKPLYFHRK

CCOc1ncc(C)c2c1[C@H](c1ccc(C#N)cc1OC)C(C(N)=O)=C(C)N2 [FINERENONE]
IC50: 18 nM
